Measured values taken from patent US20260217701A1, “SELECTIVE BET INHIBITORS AND USES THEREOF” (Tay Therapeutics Limited, priority 2022, published 2026).
Several values for one entry are separate records, joined by “and”; a condition that tells them apart may be missing. Equal values may be shown once.

System: imiquimod-induced psoriasis
Assay: Imiquimod-induced psoriasis model
Format: in vivo, mice
Set-up: Spleen Weight / Spleen Weight Ratio: unit not given here
Details: for PASI Scores / Number Licking / Number Licking + Scratching / Number Scratching / Distance Traveled / Number Rearings / Spleen Weight / Spleen Weight Ratio: individual animals; for Distance Traveled / Number Rearings: behavioral evaluation; for Spleen Weight / Spleen Weight Ratio: mice
How it was run: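 Mice given topical imiquimod (5% cream) daily on depilated backs Days 1–14; Compound A in 5% DMSO/40% PEG-400/55% saline from Day 8, clobetasol topical as reference. Daily PASI (erythema, induration, peeling, each 0–4, summed) Days 8–15; spleen weight, open-field behaviour, serum IL-1B, IL-6, IL-17, TNF-α, IL-22, IL-23 at Day 15.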

[1] = IMI-psoriasis model, behavioral evaluation D15, 1 mg/kg
[2] = IMI-psoriasis model, behavioral evaluation D15, 3 mg/kg
[3] = IMI-psoriasis model, behavioral evaluation D15, 10 mg/kg

COCCn1cc(-c2ccccc2)c(-c2cn(C)c(=O)c3[nH]c(-c4cnn(C(F)(F)F)c4)cc23)cc1=O [Compound B, 4-(1-(2-methoxyethyl)-2-oxo-5-phenyl-1,2-dihydropyridin-4-yl)-6-methyl-2-(1-(trifluoromethyl)-1H-pyrazol-4-yl)-1,6-dihydro-7H-pyrrolo[2,3-c]pyridin-7-one]
PASI Scores (IMI + Compound B 1 mg/kg, D13): 4 (2×) and 5 (3×) and 8 and 7 (2×) | PASI Scores (IMI + Compound B 1 mg/kg, D14): 4 (2×) and 7 (2×) and 6 (3×) and 5 | PASI Scores (IMI + Compound B 1 mg/kg, D15): 5 (3×) and 7 and 4 and 6 (2×) and 3 | PASI Scores (IMI + Compound B 3 mg/kg, D8 (day treatment started)): 8 and 7 (4×) | PASI Scores (IMI + Compound B 3 mg/kg, D9): 7 and 8 and 6 (3×) | PASI Scores (IMI + Compound B 3 mg/kg, D10): 6 (2×) and 8 and 5 and 4 | PASI Scores (IMI + Compound B 3 mg/kg, D11): 5 (4×) and 6 | PASI Scores (IMI + Compound B 3 mg/kg, D12): 4 and 6 (3×) | PASI Scores (IMI + Compound B 3 mg/kg, D13): 6 and 4 (3×) | PASI Scores (IMI + Compound B 3 mg/kg, D14): 6 and 4 and 5 and 3 | PASI Scores (IMI + Compound B 3 mg/kg, D15): 4 and 5 and 3 and 1 | Use Enrichment D1 (IMI-psoriasis model, D1, 1 mg/kg, per cage (two animals)): 4.0 | Use Enrichment D1 (IMI-psoriasis model, D1, 3 mg/kg, per cage (two animals)): 4.0 | Use Enrichment D1 (IMI-psoriasis model, D1, 10 mg/kg, per cage (two animals)): 4.0 | Use Enrichment D8 (IMI-psoriasis model, D8, 1 mg/kg, per cage (two animals)): 1.0 and 1.5 | Use Enrichment D9 (IMI-psoriasis model, D9, 1 mg/kg, per cage (two animals)): 1.5 and 2.0 and 1.0 | Use Enrichment D10 (IMI-psoriasis model, D10, 1 mg/kg, per cage (two animals)): 2.5 and 1.5 and 3.0 | Use Enrichment D11 (IMI-psoriasis model, D11, 1 mg/kg, per cage (two animals)): 3.0 and 3.5 and 2.5 | Use Enrichment D11 (IMI-psoriasis model, D11, 3 mg/kg, per cage (two animals)): 2.0 and 4.0 and 2.5 | Use Enrichment D12 (IMI-psoriasis model, D12, 1 mg/kg, per cage (two animals)): 1.5 and 1.0 | Use Enrichment D13 (IMI-psoriasis model, D13, 10 mg/kg, per cage (two animals)): 4.0 and 2.5 | Use Enrichment D14 (IMI-psoriasis model, D14, 1 mg/kg, per cage (two animals)): 2.5 and 2.0 and 1.5 | Use Enrichment D14 (IMI-psoriasis model, D14, 3 mg/kg, per cage (two animals)): 3.0 and 4.0 and 3.5 and 2.5 | Use Enrichment D14 (IMI-psoriasis model, D14, 10 mg/kg, per cage (two animals)): 4.0 | Use Enrichment D15 (IMI-psoriasis model, D15, 3 mg/kg, per cage (two animals)): 3.5 and 4.0 and 3.0 | Use Enrichment D15 (IMI-psoriasis model, D15, 10 mg/kg, per cage (two animals)): 4.0 | Number Licking [1]: 3 (4×) and 2 and 7 and 4 and 5 | Number Licking + Scratching [1]: 5 (3×) and 8 and 3 and 4 and 7 and 6 | Number Scratching [1]: 2 (2×) and 5 and 0 (3×) and 1 and 3 | Number Licking [2]: 8 (2×) and 9 and 3 (4×) | Number Licking + Scratching [2]: 8 and 11 and 4 and 3 (2×) and 5 and 13 | Number Scratching [2]: 0 (3×) and 2 (2×) and 1 and 5 | Number Licking [3]: 6 and 4 and 2 (4×) and 3 | Number Licking + Scratching [3]: 6 and 5 and 2 (2×) and 3 (3×) | Number Scratching [3]: 0 (4×) and 1 (3×) | Distance Traveled (IMI-psoriasis model, 1 mg/kg): 15 m and 7 m and 11 m and 8 m and 9 m and 13 m and 14 m (2×) | Number Rearings (IMI-psoriasis model, 1 mg/kg): 44 and 23 and 47 and 19 and 29 and 27 and 87 and 49 | Distance Traveled (IMI-psoriasis model, 3 mg/kg): 17 m and 9 m and 23 m and 12 m and 15 m and 11 m and 13 m | Number Rearings (IMI-psoriasis model, 3 mg/kg): 27 and 38 and 121 and 47 and 31 and 60 and 57 | Distance Traveled (IMI-psoriasis model, 10 mg/kg): 15 m and 14 m and 16 m and 7 m (3×) and 6 m | Number Rearings (IMI-psoriasis model, 10 mg/kg): 44 (2×) and 71 and 6 and 11 and 1 and 13 | Use Enrichment Mean D1-D8 (IMI-psoriasis model, mean D1-D8, 1 mg/kg, per cage (two animals)): 2.50 and 2.75 | Use Enrichment Mean D1-D8 (IMI-psoriasis model, mean D1-D8, 3 mg/kg, per cage (two animals)): 2.50 and 2.75 and 2.25 | Use Enrichment Mean D1-D8 (IMI-psoriasis model, mean D1-D8, 10 mg/kg, per cage (two animals)): 2.50 and 2.75 and 2.00 and 3.00 | Use Enrichment Mean D8-D15 (IMI-psoriasis model, mean D8-D15, 1 mg/kg, per cage (two animals)): 2.57 and 2.07 and 2.43 and 2.14 | Use Enrichment Mean D8-D15 (IMI-psoriasis model, mean D8-D15, 10 mg/kg, per cage (two animals)): 3.50 and 2.29 and 1.93 and 3.07 | Spleen Weight (IMI-psoriasis model, 1 mg/kg): 255.35 and 280.52 and 235.85 and 298.12 and 227.47 and 255.31 and 244.77 and 316.12 | Spleen Weight Ratio (IMI-psoriasis model, 1 mg/kg): 1562.73 and 1912.20 and 1309.55 and 1793.74 and 1315.62 and 1552.98 and 1518.42 and 1820.97 | Spleen Weight (IMI-psoriasis model, 3 mg/kg): 244.98 and 212.34 and 270.73 and 183.55 and 232.29 and 224.28 and 206.85 and 220.98 | Spleen Weight Ratio (IMI-psoriasis model, 3 mg/kg): 1777.79 and 1257.94 and 1699.50 and 1016.90 and 1343.49 and 1313.11 and 1297.68 and 1278.08 | Spleen Weight (IMI-psoriasis model, 10 mg/kg): 184.80 and 169.45 and 184.96 and 119.62 and 101.24 and 156.25 and 130.42 and 159.58
